Test results published in US20100280010A1, “CHEMICAL COMPOUNDS” (priority 2006, published 2010).
pIC50: −log10 of the molar value.

Test system: HIV-1 (Ba-L or IIIB) infection of HOS cell line (expressing hCXCR4/hCCR5/hCD4/pHIV-LTR-luciferase)
Assay: HOS HIV-1 Infectivity Assay
Format: cell-based
Details: Human immunodeficiency virus 1, HOS, virus strain not given, read-out: Activity Level
Method: Compounds were profiled against two HIV-1 viruses, the M-tropic (CCR5 utilizing) Ba-L strain and the T-tropic (CXCR4 utilizing) IIIB strain. Ba-L was propagated in either peripheral blood lymphocytes or SupT1/CCR5+/CXCR4+ cells. IIIB was propagated in peripheral blood lymphocytes. Compounds were tested for their ability to block infection of the HOS cell line (expressing hCXCR4/hCCR5/hCD4/pHIV-LTR-luciferase) by either HIV-1 Ba-L or HIV-1 IIIB. Compound cytotoxicity was also examined in the absence of virus addition.
HOS cells (expressing hCXCR4/hCCR5/hCD4/pHIV-LTR-luciferase) were harvested and diluted in Dulbeccos modified Eagles media supplemented with 2% FCS to a concentration of 120,000 cells/ml. The cells were plated into 96-well plates (50 μl per well) and the plates were placed in a tissue culture incubator ([…]; 5% CO2195% air) for a period of 24 h.
Subsequently, 50 μl of the desired drug solution (2 times the final concentration) was added to each well and the plates were returned to the tissue culture incubator (370° C.; 5% CO2/95% air) for 1 h. Following this incubation, 60 μl of diluted virus (4 times the final concentration) was added to 60 μl of 2× the final desired concentration of the compound and 100 μl of this compound/virus mix was added to each well (approximately 2 million RLU per well of virus). The plates were returned to the tissue culture incubator (370° C.; 5% CO2/95% air) and were incubated for a further 96 h.
Following this incubation the endpoint for the virally infected cultures was quantified following addition of Steady-Glo Luciferase assay system reagent (Promega, Madison, Wis.). Cell viability or non-infected cultures was measured using a CellTiter-Glo luminescent cell viability assay system (Promega, Madison, Wis.). All luminescent readouts are performed on a Topcount luminescence detector (Packard, Meridien, Conn.).

| SMILES | pIC50 |
| --- | --- |
| CC(C)N(Cc1nc2cccc(N3CCC(N(C)C)CC3)n2c1C#N)[C@H]1CCCc2cccnc21 [Example 70, 5-[4-(dimethylamino)-1-piperidinyl]-2-({(1-methylethyl)[(8S)-5,6,7,8-tetrahydro-8-quinolinyl]amino}methyl)imidazo[1,2-a]pyridine-3-carbonitrile] | > 7.00 |
| CC(C)N(Cc1nc2cccc(N3CCC(N(C)C)CC3)n2c1C(N)=O)[C@H]1CCCc2cccnc21 [Example 71, 5-[4-(dimethylamino)-1-piperidinyl]-2-({(1-methylethyl)[(8S)-5,6,7,8-tetrahydro-8-quinolinyl]amino}methyl)imidazo[1,2-a]pyridine-3-carboxamide] | > 7.00 |
| CN1CCN(c2cccc3nc(CN(C)[C@H]4CCCc5cccnc54)c(Cl)n23)CC1 [Example 72, (8S)—N-{[3-Chloro-5-(4-methyl-1-piperazinyl)imidazo[1,2-a]pyridin-2-yl]methyl}-N-methyl-5,6,7,8-tetrahydro-8-quinolinamine] | > 7.00 |
| CCN1CCN(c2cccc3nc(CN(C)[C@H]4CCCc5cccnc54)c(Cl)n23)CC1 [Example 73, (8S)—N-{[3-Chloro-5-(4-ethyl-1-piperazinyl)imidazo[1,2-a]pyridin-2-yl]methyl}-N-methyl-5,6,7,8-tetrahydro-8-quinolinamine] | > 7.00 |
| CN(C)[C@@H]1CCN(c2cccc3nc(CN(C)[C@H]4CCCc5cccnc54)c(Cl)n23)C1 [Example 74, (8S)—N-({3-Chloro-5-[(3R)-3-(dimethylamino)-1-pyrrolidinyl]imidazo[1,2-a]pyridin-2-yl}methyl)-N-methyl-5,6,7,8-tetrahydro-8-quinolinamine] | > 7.00 |
| CN(C)C1CCN(c2cccc3nc(CN(C)[C@H]4CCCc5cccnc54)c(Cl)n23)CC1 [Example 75, (8S)—N-({3-Chloro-5-[4-(dimethylamino)-1-piperidinyl]imidazo[1,2-a]pyridin-2-yl}methyl)-N-methyl-5,6,7,8-tetrahydro-8-quinolinamine] | > 7.00 |
| CN1CCCN(c2cccc3nc(CN(C)[C@H]4CCCc5cccnc54)c(Cl)n23)CC1 [Example 76, (8S)—N-{[3-Chloro-5-(4-methylhexahydro-1H-1,4-diazepin-1-yl)imidazo[1,2-a]pyridin-2-yl]methyl}-N-methyl-5,6,7,8-tetrahydro-8-quinolinamine] | > 7.00 |
| CN(C)CCN(C)c1cccc2nc(CN(C)[C@H]3CCCc4cccnc43)c(Cl)n12 [Example 77, N-[3-Chloro-2-({methyl[(8S)-5,6,7,8-tetrahydro-8-quinolinyl]amino}methyl)imidazo[1,2-a]pyridin-5-yl]-N,N′,N′-trimethyl-1,2-ethanediamine] | > 7.00 |
| C[C@H]1CN(c2cccc3nc(CN(C)[C@H]4CCCc5cccnc54)c(Cl)n23)CCN1 [Example 78, (8S)—N-({3-Chloro-5-[(3S)-3-methyl-1-piperazinyl]imidazo[1,2-a]pyridin-2-yl}methyl)-N-methyl-5,6,7,8-tetrahydro-8-quinolinamine] | > 7.00 |
| C[C@H]1CN(c2cccc3nc(CN(C)[C@H]4CCCc5cccnc54)c(Cl)n23)CCN1C [Example 79, (8S)—N-([3-Chloro-5-[(3S)-3,4-dimethyl-1-piperazinyl]imidazo[1,2-a]pyridin-2-yl]methyl)-N-methyl-5,6,7,8-tetrahydro-8-quinolinamine] | > 7.00 |
| CC(C)N1CCN(c2cccc3nc(CN(C)[C@H]4CCCc5cccnc54)c(Cl)n23)CC1 [Example 80, (8S)—N-({3-Chloro-5-[4-(1-methylethyl)-1-piperazinyl]imidazo[1,2-a]pyridin-2-yl}methyl)-N-methyl-5,6,7,8-tetrahydro-8-quinolinamine] | > 7.00 |
| CN(Cc1nc2cccc(N3CCN4CCC[C@H]4C3)n2c1Cl)[C@H]1CCCc2cccnc21 [Example 81, (8S)—N-({3-Chloro-5-[(8aS)-hexahydropyrrolo[1,2-a]pyrazin-2(1H)-yl]imidazo[1,2-a]pyridin-2-yl}methyl)-N-methyl-5,6,7,8-tetrahydro-8-quinolinamine] | > 7.00 |
| CCCN(Cc1nc2cccc(N3CCN(C)CC3)n2c1Cl)[C@H]1CCCc2cccnc21 [Example 82, (8S)—N-{[3-Chloro-5-(4-methyl-1-piperazinyl)imidazo[1,2-a]pyridin-2-yl]methyl}-N-propyl-5,6,7,8-tetrahydro-8-quinolinamine] | > 7.00 |
| CCCN(Cc1nc2cccc(N3CCN(CC)CC3)n2c1Cl)[C@H]1CCCc2cccnc21 [Example 83, (8S)—N-{[3-Chloro-5-(4-ethyl-1-piperazinyl)imidazo[1,2-a]pyridin-2-yl]methyl}-N-propyl-5,6,7,8-tetrahydro-8-quinolinamine] | > 7.00 |
| CCCN(Cc1nc2cccc(N3CCCN(C)CC3)n2c1Cl)[C@H]1CCCc2cccnc21 [Example 84, (8S)—N-{[3-Chloro-5-(4-methylhexahydro-1H-1,4-diazepin-1-yl)imidazo[1,2-a]pyridin-2-yl]methyl}-N-propyl-5,6,7,8-tetrahydro-8-quinolinamine] | > 7.00 |
| CCCN(Cc1nc2cccc(N3CCN(C(C)C)CC3)n2c1Cl)[C@H]1CCCc2cccnc21 [Example 85, (8S)—N-({3-Chloro-5-[4-(1-methylethyl)-1-piperazinyl]imidazo[1,2-a]pyridin-2-yl}methyl)-N-propyl-5,6,7,8-tetrahydro-8-quinolinamine] | > 7.00 |
| CCCN(Cc1nc2cccc(N3CC[C@@H](N(C)C)C3)n2c1Cl)[C@H]1CCCc2cccnc21 [Example 86, (8S)—N-({3-Chloro-5-[(3R)-3-(dimethylamino)-1-pyrrolidinyl]imidazo[1,2-a]pyridin-2-yl}methyl)-N-propyl-5,6,7,8-tetrahydro-8-quinolinamine] | > 7.00 |
| CCCN(Cc1nc2cccc(N3CCC(N(C)C)CC3)n2c1Cl)[C@H]1CCCc2cccnc21 [Example 87, (8S)—N-({3-Chloro-5-[4-(dimethylamino)-1-piperidinyl]imidazo[1,2-a]pyridin-2-yl}methyl)-N-propyl-5,6,7,8-tetrahydro-8-quinolinamine] | > 7.00 |
| CCCN(Cc1nc2cccc(N3CCN[C@@H](C)C3)n2c1Cl)[C@H]1CCCc2cccnc21 [Example 88, (8S)—N-({3-Chloro-5-[(3S)-3-methyl-1-piperazinyl]imidazo[1,2-a]pyridin-2-yl}methyl)-N-propyl-5,6,7,8-tetrahydro-8-quinolinamine] | > 7.00 |
| CCCN(Cc1nc2cccc(N(C)CCN(C)C)n2c1Cl)[C@H]1CCCc2cccnc21 [Example 89, N-[3-Chloro-2-({propyl[(8S)-5,6,7,8-tetrahydro-8-Quinolinyl]amino}methyl)imidazo[1,2-a]pyridin-5-yl]-N,N′,N′-trimethyl-1,2-ethanediamine] | > 7.00 |
| CCCN(Cc1cn2c(N3CCN(C)CC3)ccc(F)c2n1)[C@H]1CCCc2cccnc21 [Example 90, (8S)—N-{[8-Fluoro-5-(4-methyl-1-piperazinyl)imidazo[1,2-a]pyridin-2-yl]methyl}-N-propyl-5,6,7,8-tetrahydro-8-quinolinamine] | > 7.00 |
